Results published in PMC9144829, “Histone Deacetylase Inhibitory Activity and Antiproliferative Potential of New [6]-Shogaol Derivatives” (Molecules, 2022).
Like-named read-outs stand apart in the source and are kept apart here. Values belong to the compound of their own block, whether it stands above or below them.

Experiments:
[1] = test system: HDAC enzymes (HeLa nuclear extract, mixed-HDAC isoforms); experiment: Fluor-de-Lys HDAC activity assay kit, HeLa nuclear extract as source of HDAC enzymes; assay type: biochemical, human; conditions: compounds at 100 µM
Experimental: The in vitro HDAC inhibitions of the obtained compounds were carried out with the assay kit containing mixed-HDAC isoforms. […] Therefore, the results were not fully related. However, compounds with good binding affinities should have the potential to be specific HDAC inhibitors for each isoform.
The semi-synthetic derivatives were evaluated for their ability to inhibit HDAC enzymes. Inhibition of HDAC activity in vitro was assessed using the Fluor-de-Lys HDAC activity assay kit (Biomol, Enzo Life Sciences International, Inc., Farmingdale, NY, USA). The HeLa nuclear extract provided with the kit was used as a source of HDAC enzymes for the in vitro study. TSA was used as the positive control. The HeLa nuclear extract, substrate, buffer and inhibitors were incubated. Deacetylation of the substrate was performed next by adding a developer to generate a fluorophore. The spectra Max Gemini XPS microplate spectrofluorometer (Molecular Devices, San Jose, CA, USA) was used to measure fluorescence signal with excitation at 360 nm and emission at 460 nm. A decrease in fluorescence signal indicated an inhibition of HDAC activity. Trichostatin A (TSA) was used as a positive control. All experiments were carried out in triplicate.

[2] = test system: Vero cells; experiment: MTT assay, non-cancer Vero cells; assay type: cell-based; conditions: Chlorocebus sabaeus, read-out: IC50 Values (Mean ± SD; n = 3)
Experimental: (§1) The MTT reduction assay was performed with non-cancer (Vero), human cervical cancer (HeLa), human colon cancer (HCT116), human breast adenocarcinoma cancer (MCF-7), and cholangiocarcinoma (H-69 […], KKU-100 and KKU-M213B) cell lines according to the previously described method. Briefly, cells were seeded in 96-well plates. The next day, cells were exposed to the selected compounds at various concentrations and incubated for 24, 48 and 72 h. After incubation, the culture medium was exchanged with 110 µL of MTT (0.5 mg/mL in PBS medium) and further incubated for 2 h. The amount of MTT formazan product was determined after dissolving in DMSO by measuring its absorbance with a microplate reader (Bio-Rad Laboratories, Hercules, CA, USA) at a test wavelength of 550 nm and a reference wavelength of 655 nm. The cell viability was expressed as a percentage of the viable cells of control culture conditions, and the IC50 values of each group were calculated.

[3] = test system: human cervical cancer (HeLa) cells; experiment: MTT assay, HeLa cells; assay type: cell-based; conditions: for IC50: read-out: IC50 Values (Mean ± SD; n = 3), HeLa cells
Experimental: as §1

[4] = test system: human colon cancer (HCT116) cells; experiment: MTT assay, HCT116 cells; assay type: cell-based
Experimental: as §1

[5] = test system: human breast adenocarcinoma cancer (MCF-7) cells; experiment: MTT assay, MCF-7 cells; assay type: cell-based
Experimental: as §1

[6] = test system: H-69 cells; experiment: MTT assay, H-69 cells; assay type: cell-based
Experimental: as §1

[7] = test system: cholangiocarcinoma KKU-100 cells; experiment: MTT assay, KKU-100 cells; assay type: cell-based, human
Experimental: as §1

[8] = test system: cholangiocarcinoma KKU-M213B cells; experiment: MTT assay, KKU-M213B cells; assay type: cell-based, human; conditions: read-out: IC50 Values (Mean ± SD; n = 3)
Experimental: as §1

[9] = Homo sapiens, HCT-116, read-out: IC50 Values (Mean ± SD; n = 3), 24 h
[10] = Homo sapiens, HCT-116, read-out: IC50 Values (Mean ± SD; n = 3), 48 h
[11] = Homo sapiens, HCT-116, read-out: IC50 Values (Mean ± SD; n = 3), 72 h
[12] = Homo sapiens, MCF7, read-out: IC50 Values (Mean ± SD; n = 3), 24 h
[13] = Homo sapiens, MCF7, read-out: IC50 Values (Mean ± SD; n = 3), 48 h
[14] = Homo sapiens, MCF7, read-out: IC50 Values (Mean ± SD; n = 3), 72 h
[15] = Homo sapiens, NCI-H69, read-out: IC50 Values (Mean ± SD; n = 3), 24 h
[16] = Homo sapiens, NCI-H69, read-out: IC50 Values (Mean ± SD; n = 3), 48 h
[17] = Homo sapiens, NCI-H69, read-out: IC50 Values (Mean ± SD; n = 3), 72 h
[18] = Homo sapiens, KKU100, read-out: IC50 Values (Mean ± SD; n = 3), 24 h
[19] = Homo sapiens, KKU100, read-out: IC50 Values (Mean ± SD; n = 3), 48 h
[20] = Homo sapiens, KKU100, read-out: IC50 Values (Mean ± SD; n = 3), 72 h
[21] = read-out: IC50 Values (Mean ± SD; n = 3), 24 h
[22] = read-out: IC50 Values (Mean ± SD; n = 3), 48 h
[23] = read-out: IC50 Values (Mean ± SD; n = 3), 72 h

- %HDAC Inhibition [1]: 67%
Compound: CCCCCC1CC(CCc2ccc(O)c(OC)c2)=NN1c1ccc(OC)cc1 (stereo not shown) [Compound 5d, 2-methoxy-4-(2-(1-(4-methoxyphenyl)-5-pentyl-4,5-dihydro-1H-pyrazol-3-yl)ethyl) phenol]

- %HDAC Inhibition [1]: 83%
- IC50 ([3]; Homo sapiens, 24 h): 83.8 ± 1.83 µM
- IC50 ([3]; Homo sapiens, 48 h): 56.8 ± 1.24 µM
- IC50 ([3]; Homo sapiens, 72 h): 23.1 ± 0.76 µM
- IC50 [4, 9]: 94.4 ± 2.7 µM
- IC50 [4, 10]: 39.2 ± 1.06 µM
- IC50 [4, 11]: 34.5 ± 0.66 µM
- IC50 [5, 12]: 56.6 ± 3.21 µM
- IC50 [5, 13]: 50.5 ± 1.64 µM
- IC50 [5, 14]: 31.8 ± 0.88 µM
Compound: CCCCCC1CC(CCc2ccc(O)c(OC)c2)=NN1c1ccc(C(=O)O)cc1 (stereo not shown) [Compound 5k, 4-(3-(4-hydroxy-3-methoxyphenethyl)-5-pentyl-4,5-dihydro-1H-pyrazol-1-yl)benzo ic acid]
- IC50 ([2]; 24 h): 143 ± 2.15 µM
- IC50 ([2]; 48 h): 128 ± 1.73 µM
- IC50 ([2]; 72 h): 116.7 ± 1.13 µM
- selectivity towards HeLa cells than non-cancer cells ([3]; HeLa versus non-cancer cells): about 5 fold
- IC50 [6, 15]: 68.7 ± 1.15 µM
- IC50 [6, 16]: 52.7 ± 1.73 µM
- IC50 [6, 17]: 47.6 ± 0.73 µM
- IC50 [7, 18]: 68.1 ± 1.98 µM
- IC50 [7, 19]: 38.9 ± 0.65 µM
- IC50 [7, 20]: 26.99 ± 0.08 µM
- IC50 ([8]; Homo sapiens, 24 h): 63.2 ± 2.52 µM
- IC50 ([8]; Homo sapiens, 48 h): 35.7 ± 1.4 µM
- IC50 ([8]; Homo sapiens, 72 h): 29.1 ± 1.17 µM

- %HDAC Inhibition [1]: 60%
Compound: CCCCCC1CC(CCc2ccc(O)c(OC)c2)=NN1c1cccc(Cl)c1 (stereo not shown) [Compound 5g, 4-(2-(1-(3-chlorophenyl)-5-pentyl-4,5-dihydro-1H-pyrazol-3-yl)ethyl)-2-methoxyphenol]

- %HDAC Inhibition [1]: 64%
Compound: 10-(4-Hydroxy-3-methoxyphenyl)-6-((2-hydroxyphenyl)amino)decan-8-one [Compound 6b]

- %HDAC Inhibition [1]: 53%
Compound: 10-(4-Hydroxy-3-methoxyphenyl)-6-(phenylamino)decan-8-one [Compound 6c]

- %HDAC Inhibition [1]: 77%
Compound: CCCCCC1CC(CCc2ccc(O)c(OC)c2)=NN1c1ccc(F)cc1 (stereo not shown) [Compound 5f, 4-(2-(1-(4-fluorophenyl)-5-pentyl-4,5-dihydro-1H-pyrazol-3-yl)ethyl)-2-methoxyphenol]

Continued, compound first:

Compound: CCCCC/C=C/C(CCc1ccc(O)c(OC)c1)=N\Nc1ccccn1 [Compound 4c, 2-Methoxy-4-((3Z,4E)-3-(2-(pyridin-2-yl)hydrazono)dec-4-en-1-yl)phenol]
- %HDAC Inhibition [1]: 80%
- IC50 ([2]; 24 h): 69.5 ± 3.94 µM
- IC50 ([2]; 48 h): 49.31 ± 0.18 µM
- IC50 ([2]; 72 h): 45.2 ± 0.49 µM
- IC50 ([3]; Homo sapiens, 24 h): 49.3 ± 1.27 µM
- IC50 ([3]; Homo sapiens, 48 h): 33.4 ± 1.09 µM
- IC50 ([3]; Homo sapiens, 72 h): 29.3 ± 0.88 µM
- IC50 [4, 9]: 20.2 ± 0.46 µM
- IC50 [4, 10]: 18.4 ± 0.32 µM
- IC50 [4, 11]: 17.2 ± 0.23 µM
- IC50 [5, 12]: 46.4 ± 1.3 µM
- IC50 [5, 13]: 39.4 ± 0.68 µM
- IC50 [5, 14]: 27.1 ± 0.47 µM
- IC50 [6, 15]: 40 ± 1.57 µM
- IC50 [6, 16]: 30.6 ± 0.82 µM
- IC50 [6, 17]: 28.7 ± 0.36 µM
- IC50 [7, 18]: 36.8 ± 0.89 µM
- IC50 [7, 19]: 29.7 ± 0.96 µM
- IC50 [7, 20]: 19.2 ± 0.41 µM
- IC50 ([8]; Homo sapiens, 24 h): 39 ± 0.27 µM
- IC50 ([8]; Homo sapiens, 48 h): 28.98 ± 0.26 µM
- IC50 ([8]; Homo sapiens, 72 h): 25.9 ± 0.71 µM

Compound: N.N.[Cl][Pt][Cl] [Cisplatin, reference compound]
- IC50 ([3]; 24 h): 17.1 ± 1 µM
- IC50 ([3]; 48 h): 9.97 ± 0.34 µM
- IC50 ([3]; 72 h): 6.45 ± 0.12 µM
- IC50 [4, 21]: 21 ± 2.56 µM
- IC50 [4, 22]: 7.61 ± 0.61 µM
- IC50 [4, 23]: 4.98 ± 0.77 µM
- IC50 [5, 21]: 29.2 ± 1.35 µM
- IC50 [5, 22]: 13.8 ± 0.54 µM
- IC50 [5, 23]: 10.4 ± 0.25 µM
- IC50 [6, 21]: > 20 µM
- IC50 [6, 22]: > 20 µM
- IC50 [6, 23]: 15.8 ± 0.35 µM
- IC50 [7, 21]: 17.32 ± 0.12 µM
- IC50 [7, 22]: 11.2 ± 0.14 µM
- IC50 [7, 23]: 7.57 ± 0.07 µM
- IC50 ([8]; 24 h): > 20 µM
- IC50 ([8]; 48 h): 18.6 ± 0.57 µM
- IC50 ([8]; 72 h): 13 ± 0.61 µM

Compound: CCCCCC1CC(CCc2ccc(O)c(OC)c2)=NN1c1ccccc1C (stereo not shown) [Compound 5b, 2-methoxy-4-(2-(5-pentyl-1-(o-tolyl)-4,5-dihydro-1H-pyrazol-3-yl)ethyl)phenol]
- %HDAC Inhibition [1]: 56%

Compound: CCCCCC1CC(CCc2ccc(O)c(OC)c2)=NN1c1ccccc1OC (stereo not shown) [Compound 5c, 2-methoxy-4-(2-(1-(2-methoxyphenyl)-5-pentyl-4,5-dihydro-1H-pyrazol-3-yl)ethyl) phenol]
- %HDAC Inhibition [1]: 52%
